Measured values taken from patent US20110034429A1, “5a-ANDROSTANE-3,6,17-TRIONE (KNELLER'S TRIONE) AND METHODS OF USE THEREFOR” (priority 2009, published 2011).

Experiments:
[1] = Pilot study: oral daily Kneller's Trione in men, plasma sex hormone profile; type: in vivo, human; settings: for change of testosterone-to-estradiol ratio: 14 days, ending vs starting ratio; for TOTAL TESTOSTERONE / ESTRADIOL / DHT: person
Method: The first study subject was a person who was dosed once per day orally with 25 mg per day of Kneller's Trione.
The second study subject was a person who was dosed once per day orally with 50 mg per day of Kneller's Trione.
The third study subject was a person who was dosed once per day orally with 100 mg per day of Kneller's Trione.

[2] = Pilot study: adverse events and safety observations in study subjects; type: in vivo, human

SMILES: C[C@]12CCC(=O)C[C@@H]1C(=O)C[C@@H]1[C@@H]2CC[C@]2(C)C(=O)CC[C@@H]12 [Kneller's Trione, 5α-androstane-3,6,17-trione]
- change of testosterone-to-estradiol ratio ([1]; 25 mg daily oral): 130%
- change of testosterone-to-estradiol ratio ([1]; 50 mg daily oral): 28%
- effect on bioavailable testosterone level ([1]; 250 mg per day oral): raised
- effect on total testosterone level ([1]; 250 mg per day oral): raised
- effect on bioavailable testosterone level ([1]; 500 mg per day oral): raised
- effect on total testosterone level ([1]; 500 mg per day oral): raised
- added benefits with high dosage ([1]; 750 mg per day oral): no added benefits were seen
- changes in plasma estradiol levels in men ([1]; general statement): no changes outside the accepted normal limits
- effect on plasma testosterone levels in men ([1]; general statement): substantial and significant increases
- increase of plasma free testosterone levels ([1]; oral administration): more than 100%
- TOTAL TESTOSTERONE ([1]; 25 mg per day oral, single dose, DAY 7 (baseline 6,290 pg/mL)): 6,400 pg/mL
- ESTRADIOL ([1]; 25 mg per day oral, DAY 7 (baseline 47 pg/mL)): 28 pg/mL
- DHT ([1]; 25 mg per day oral, DAY 7 (baseline 42 ng/dL)): 36 ng/dL
- ESTRADIOL ([1]; 25 mg per day oral, DAY 14 (baseline 47 pg/mL)): 23 pg/mL
- DHT ([1]; 25 mg per day oral, DAY 14 (baseline 42 ng/dL)): 49 ng/dL
- TOTAL TESTOSTERONE ([1]; 50 mg per day oral, single dose, DAY 7 (baseline 8,570 pg/mL)): 11,000 pg/mL
- ESTRADIOL ([1]; 50 mg per day oral, DAY 7 (baseline 36 pg/mL)): 35 pg/mL
- DHT ([1]; 50 mg per day oral, DAY 7 (baseline 47 ng/dL)): 46 ng/dL
- ESTRADIOL ([1]; 50 mg per day oral, DAY 14 (baseline 36 pg/mL)): 36 pg/mL
- TOTAL TESTOSTERONE ([1]; 50 mg per day oral, DAY 14 (baseline 8,570 pg/mL)): 11,000 pg/mL
- DHT ([1]; 50 mg per day oral, DAY 14 (baseline 47 ng/dL)): 49 ng/dL
- ESTRADIOL ([1]; 100 mg per day oral, DAY 7 (baseline 46 pg/mL)): 44 pg/mL
- DHT ([1]; 100 mg per day oral, DAY 7 (baseline 35 ng/dL)): 48 ng/dL
- ESTRADIOL ([1]; 100 mg per day oral, DAY 14 (baseline 46 pg/mL)): 34 pg/mL
- DHT ([1]; 100 mg per day oral, DAY 14 (baseline 35 ng/dL)): 41 ng/dL
- adverse event causing the subject to withdraw ([2]; 750 mg per day oral): priaprism
- other adverse events noted by any study subject ([2]; oral daily dosages 25 mg to 750 mg): No other adverse events
